According to ChEMBL document CHEMBL1151944, “Activation of peroxisome proliferator-activated receptor gamma (PPARgamma) by nitroalkene fatty acids: importance of nitration position and degree of unsaturation” (J Med Chem, 2009):
Activity calls are given as the source filed them. No cut-off for these calls is given here.

What was measured:
[1] = target: T1, Peroxisome proliferator-activated receptor gamma (Homo sapiens, UniProt P37231); test: Displacement of [3H2]nTZD3 from GST-tagged human recombinant PPARgamma by scintillation proximity assay
T1 sequence (P37231 whole entry): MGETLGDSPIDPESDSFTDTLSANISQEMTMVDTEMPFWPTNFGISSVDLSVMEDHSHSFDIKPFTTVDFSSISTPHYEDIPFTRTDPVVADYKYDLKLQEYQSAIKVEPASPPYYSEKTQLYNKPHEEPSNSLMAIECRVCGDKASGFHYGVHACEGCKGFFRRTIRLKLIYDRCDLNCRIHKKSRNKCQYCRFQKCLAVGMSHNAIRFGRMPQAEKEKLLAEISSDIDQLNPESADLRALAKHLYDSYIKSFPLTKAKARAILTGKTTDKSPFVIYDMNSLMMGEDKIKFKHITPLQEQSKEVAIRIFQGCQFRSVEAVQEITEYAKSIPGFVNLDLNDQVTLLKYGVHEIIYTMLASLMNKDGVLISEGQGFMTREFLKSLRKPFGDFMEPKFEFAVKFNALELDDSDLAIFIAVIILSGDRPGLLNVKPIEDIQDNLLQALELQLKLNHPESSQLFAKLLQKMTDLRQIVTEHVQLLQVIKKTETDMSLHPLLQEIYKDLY

[2] = target: T2, Peroxisome proliferator-activated receptor alpha (Homo sapiens, UniProt Q07869)
T2 sequence (Q07869 whole entry): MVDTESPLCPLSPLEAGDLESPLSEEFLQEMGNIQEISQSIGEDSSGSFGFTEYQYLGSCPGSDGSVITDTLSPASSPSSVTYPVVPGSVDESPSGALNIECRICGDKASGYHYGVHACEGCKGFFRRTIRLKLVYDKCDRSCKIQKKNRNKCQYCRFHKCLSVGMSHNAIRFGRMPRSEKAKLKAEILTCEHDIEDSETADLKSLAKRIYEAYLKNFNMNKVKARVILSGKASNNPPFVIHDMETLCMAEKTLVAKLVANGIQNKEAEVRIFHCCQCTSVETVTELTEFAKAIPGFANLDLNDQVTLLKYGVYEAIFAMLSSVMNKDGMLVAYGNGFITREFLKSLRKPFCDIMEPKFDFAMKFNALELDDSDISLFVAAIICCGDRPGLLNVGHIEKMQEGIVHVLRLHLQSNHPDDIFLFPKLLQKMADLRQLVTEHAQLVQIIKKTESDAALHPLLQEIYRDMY
Description: (§1) Displacement of [3H2]nTZD3 from GST-tagged human recombinant PPARalpha by scintillation proximity assay

[3] = target: T3, Peroxisome proliferator-activated receptor gamma (Homo sapiens) (UniProt P37231); test: Activation of human PPAR-gamma-dependent transcription expressed in human MCF7 cells assessed as induction of PPRE-reporter gene expression at 1 uM after 24 hrs by dual luciferase reporter gene assay; type: cell-based
T3 sequence (whole entry): T1 sequence (P37231 whole entry)

[4] = target: T2, Peroxisome proliferator-activated receptor alpha; remark: listed apart in the source
Description: as §1

[5] = Cytotoxicity against human MCF7 cells expressing human PPARgamma assessed as cell survival at 5 uM after 7 days by sulforhodamine B assay

IC50 [1] [µM] | IC50 [2] [µM] | Activity [3] | IC50 [4] [µM] | Compound | viability at 168 h, 5 µM [5] [%]
1.68 | > 15 |  |  | CCCCCCCCCCCC/C=C(\CCCC(=O)O)[N+](=O)[O-] | 
0.039 | 1.6 |  |  | CCCCC/C=C(\CCCCCCCCCCC(=O)O)[N+](=O)[O-] | 
0.19 | 1.1 |  |  | CCCCC/C(=C\CCCCCCCCCCC(=O)O)[N+](=O)[O-] | 
 |  | Active | 9.6 | CCCCC/C=C(\C/C=C\CCCCCCCC(=O)O)[N+](=O)[O-] | 
1.61 | > 15 |  |  | CCCCCCCC/C(=C\CCCCCCCC(=O)O)[N+](=O)[O-] [CXA-10] | 
0.98 | > 15 |  |  | CCCCCCCC/C=C(\CCCCCCCC(=O)O)[N+](=O)[O-] [NITROLEIC ACID] | < 5
0.83 | > 15 |  |  | CCCCCC/C=C(\CCCCCCCC(=O)O)[N+](=O)[O-] | 
0.63 | > 15 |  |  | CCCCCC/C(=C\CCCCCCCC(=O)O)[N+](=O)[O-] | 
1.72 | > 15 |  |  | CCCCCCCCCCCC/C(=C\CCCC(=O)O)[N+](=O)[O-] | 
